The assay relates to NF-κ B activation. Briefly: Inhibitory activity of NF-κB activation, luciferase reporter assay under TNF-α stimulation in HepG2. Type of assay: cell-based, human. As to conditions: HepG2, TNF-α 40 ng/ml, 4 hours; for inhibition at 1 µg/mL / inhibition at 10 µg/mL: Homo sapiens, read-out: Inhibitory rate against NF-κB activation (%). The method, then: Measurement of Inhibitory Activity of NF-κB activation
Using a transfection reagent (Effectene; QIAGEN), the human hepatoma cell strain HepG2 was transfected with a plasmid (pNF κ B-Luc Reporter Plasmid; […]) integrated with an oligonucleotide having five tandem copies of NF-κ B binding sequences([…]) on a upstream region of firefly luciferase gene(Luc) according to the QIAGEN's protocol, and the cells were incubated for 6 to 24 hours. After addition of TNF-α (40 ng/ml) in the presence or absence of a test compound, the cells were incubated for 4 hours, and intracellular luciferase activity was measured by using PicaGene LT (TOYO INK MFG Co., Ltd.) and a chemical luminescence measurement apparatus ([…]luor Plus; TECAN). The inhibitory ratio was measured as a ratio relative to the value of the luciferase activity in the absence of the test compound.

Turning to `O=C(Nc1cc(C(F)(F)F)ccc1N1CCC(C(F)(F)F)CC1)c1cc(Cl)ccc1O` [compound 112], the “Inhibitory rate against NF-κB activation (%)” value (shortened to “Inhibitory rate … (%)”) is given as 96.5% (Drug concentration at 1 μg/mL) and 95.7% (Drug concentration at 10 μg/mL).

For `O=C(Nc1cc(C(F)(F)F)ccc1OCC(F)(F)F)c1cc(Cl)ccc1O` [compound 113], the “Inhibitory rate … (%)” value is given as 90.5% (Drug concentration at 1 μg/mL) and 96.2% (Drug concentration at 10 μg/mL).

`Cc1cc(Oc2ccc(C(F)(F)F)cc2NC(=O)c2cc(Cl)ccc2O)cc(C)c1Cl` [compound 115]: the “Inhibitory rate … (%)” value is, setting by setting: (Drug concentration at 1 μg/mL) 90.7%; (Drug concentration at 10 μg/mL) 98.4%.

Consider `O=C(Nc1cc(C(F)(F)F)ccc1N1CCCCC1)c1cc(Cl)ccc1O` [compound 116], for which the “Inhibitory rate … (%)” value is, setting by setting: (Drug concentration at 1 μg/mL) 90.0%; (Drug concentration at 10 μg/mL) 97.3%.

Turning to `Cc1ccc(Oc2ccc(C(F)(F)F)cc2NC(=O)c2cc(Cl)ccc2O)cc1` [compound 117], the “Inhibitory rate … (%)” value was determined as 92.8% (Drug concentration at 1 μg/mL) and 92.6% (Drug concentration at 10 μg/mL).

For the compound `O=C(Nc1cc(C(F)(F)F)ccc1Oc1ccc(Cl)cc1)c1cc(Cl)ccc1O` [compound 118], the “Inhibitory rate … (%)” value runs as follows: (Drug concentration at 1 μg/mL) 95.0%; (Drug concentration at 10 μg/mL) 99.5%.

`O=C(Nc1cc(C(F)(F)F)ccc1Cl)c1cc(Cl)cnc1O` [compound 119]: the “Inhibitory rate … (%)” value is, setting by setting: (Drug concentration at 1 μg/mL) 85.4%; (Drug concentration at 10 μg/mL) 86.9%.

On to `CC(=O)Oc1ccccc1C(=O)Nc1cc(Cl)cc(Cl)c1` [compound 121], for which the “Inhibitory rate … (%)” value was determined as 92.9% (Drug concentration at 1 μg/mL) and 95.5% (Drug concentration at 10 μg/mL).

Consider `O=C(Nc1cc(F)cc(F)c1)c1cc(Br)ccc1O` [compound 123], for which the “Inhibitory rate … (%)” value is, setting by setting: (Drug concentration at 1 μg/mL) 91.8%; (Drug concentration at 10 μg/mL) 96.8%.

Take `O=C(Nc1cc(Cl)cc(Cl)c1)c1cc(Br)cc(Br)c1O` [compound 128]: the “Inhibitory rate … (%)” value (Drug concentration at 1 μg/mL) came to 91.4% and the “Inhibitory rate … (%)” value (Drug concentration at 10 μg/mL) amounted to 95.1%.

With `O=C(Nc1cc(Cl)cc(Cl)c1)c1ccc(Cl)cc1O` [compound 129], the “Inhibitory rate … (%)” value (Drug concentration at 10 μg/mL) is listed as 71.8%.

With `O=C(Nc1cc(Cl)cc(Cl)c1)c1cc([N+](=O)[O-])ccc1O` [compound 130], the “Inhibitory rate … (%)” value (Drug concentration at 10 μg/mL) is on record as 70.6%.

Take `Cc1ccc(O)c(C(=O)Nc2cc(Cl)cc(Cl)c2)c1` [compound 131]: the “Inhibitory rate … (%)” value runs as follows: (Drug concentration at 1 μg/mL) 49.1%; (Drug concentration at 10 μg/mL) 88.7%.

In the case of `O=C(Nc1cc([N+](=O)[O-])cc([N+](=O)[O-])c1)c1cc(Br)ccc1O` [compound 133], the “Inhibitory rate … (%)” value by setting is: (Drug concentration at 1 μg/mL) 91.0%; (Drug concentration at 10 μg/mL) 95.6%.

With `CC(C)(C)c1ccc(C(C)(C)C)c(NC(=O)c2cc(Cl)ccc2O)c1` [compound 134], the “Inhibitory rate … (%)” value runs as follows: (Drug concentration at 1 μg/mL) 89.1%; (Drug concentration at 10 μg/mL) 96.3%.

As to `COc1ccc(C(C)(C)C)cc1NC(=O)c1cc(Cl)ccc1O` [compound 135, 5-chloro-N-{5-[(1,1-dimethyl)ethyl]-2-methoxyphenyl}-2-hydroxybenzamide], the inhibition at 1 µg/mL (Drug concentration at 1 μg/mL) was found to be 86.2%. Besides, under “Drug concentration at 10 μg/mL”, the inhibition at 10 µg/mL turned out to be 99.2%.

Turning to `COc1ccc(C(C)(C)C)cc1NC(=O)c1cc(Cl)ccc1OC(C)=O` [compound 136], the “Inhibitory rate … (%)” value worked out at 91.0% (Drug concentration at 1 μg/mL) and 99.4% (Drug concentration at 10 μg/mL).

With `Cc1cc(C)cc(NC(=O)c2cc(Br)ccc2O)c1` [compound 137], the “Inhibitory rate … (%)” value (Drug concentration at 1 μg/mL) was found to be 86.3% and the “Inhibitory rate … (%)” value (Drug concentration at 10 μg/mL) amounted to 92.6%.

In the case of `CC(C)(C)c1cc(NC(=O)c2cc(Cl)ccc2O)cc(C(C)(C)C)c1` [compound 138, N-{3,5-bis[(1,1-dimethyl)ethyl]phenyl}-5-chloro-2-hydroxybenzamide], the inhibition at 1 µg/mL (Drug concentration at 1 μg/mL) was 89.6%. Also, under “Drug concentration at 10 μg/mL”, the inhibition at 10 µg/mL was 98.1%.

Turning to `CC(=O)Oc1ccc(Cl)cc1C(=O)Nc1cc(C(C)(C)C)cc(C(C)(C)C)c1` [compound 139], the “Inhibitory rate … (%)” value is listed as 90.8% (Drug concentration at 1 μg/mL) and 94.7% (Drug concentration at 10 μg/mL).

Turning to `CC(C)(C)c1cc(NC(=O)c2cc(Br)ccc2O)cc(C(C)(C)C)c1` [compound 140], the “Inhibitory rate … (%)” value is, setting by setting: (Drug concentration at 1 μg/mL) 70.9%; (Drug concentration at 10 μg/mL) 82.0%.

As to `COc1ccc(-c2ccccc2)cc1NC(=O)c1cc(Cl)ccc1O` [compound 141], the “Inhibitory rate … (%)” value is, setting by setting: (Drug concentration at 1 μg/mL) 82.4%; (Drug concentration at 10 μg/mL) 97.9%.

Turning to `COc1ccc(OC)c(NC(=O)c2cc(Br)ccc2O)c1` [compound 142], the “Inhibitory rate … (%)” value is 32.4% (Drug concentration at 1 μg/mL) and 95.7% (Drug concentration at 10 μg/mL).

For the compound `COc1cc(NC(=O)c2cc(Br)ccc2O)cc(OC)c1` [compound 143], the “Inhibitory rate … (%)” value (Drug concentration at 1 μg/mL) was 38.3% and the “Inhibitory rate … (%)” value (Drug concentration at 10 μg/mL) stood at 96.8%.

Consider `COC(=O)c1cc(NC(=O)c2cc(Br)ccc2O)cc(C(=O)OC)c1` [compound 144, 5-bromo-2-hydroxy-N-[3,5-bis(methoxycarbonyl)phenyl]benzamide], for which the inhibition at 10 µg/mL (Drug concentration at 10 μg/mL) stood at 56.4%.

Take `CC(C)(C)c1cc(NC(=O)c2cc([N+](=O)[O-])ccc2O)cc(C(C)(C)C)c1` [compound 146]: the “Inhibitory rate … (%)” value (Drug concentration at 1 μg/mL) amounted to 91.2% and the “Inhibitory rate … (%)” value (Drug concentration at 10 μg/mL) came to 98.5%.

On to `Cc1ccc(O)c(C(=O)Nc2cc(C(C)(C)C)cc(C(C)(C)C)c2)c1` [compound 147], for which the “Inhibitory rate … (%)” value by setting is: (Drug concentration at 1 μg/mL) 38.9%; (Drug concentration at 10 μg/mL) 91.0%.

As to `COc1ccc(C(C)(C)C)cc1NC(=O)c1cc(C)ccc1O` [compound 149], the “Inhibitory rate … (%)” value (Drug concentration at 1 μg/mL) was determined as 37.4% and the “Inhibitory rate … (%)” value (Drug concentration at 10 μg/mL) is given as 87.1%.

For `Cc1ccc(C(C)C)cc1NC(=O)c1cc(Cl)ccc1O` [compound 151], the “Inhibitory rate … (%)” value stood at 85.8% (Drug concentration at 1 μg/mL) and 98.2% (Drug concentration at 10 μg/mL).

Turning to `CCOc1ccc(OCC)c(NC(=O)c2cc(Cl)ccc2O)c1` [compound 152], the “Inhibitory rate … (%)” value runs as follows: (Drug concentration at 1 μg/mL) 35.1%; (Drug concentration at 10 μg/mL) 95.3%.

In the case of `Cc1ccc(C)c(NC(=O)c2cc(Cl)ccc2O)c1` [compound 153], the “Inhibitory rate … (%)” value reads like this: (Drug concentration at 1 μg/mL) 88.3%; (Drug concentration at 10 μg/mL) 97.1%.

In the case of `N#Cc1ccc(Cl)cc1NC(=O)c1cc(Cl)ccc1O` [compound 154], the “Inhibitory rate … (%)” value (Drug concentration at 1 μg/mL) was 83.0% and the “Inhibitory rate … (%)” value (Drug concentration at 10 μg/mL) is 93.3%.

Regarding `CCN(CC)S(=O)(=O)c1ccc(OC)c(NC(=O)c2cc(Cl)ccc2O)c1` [compound 155], the “Inhibitory rate … (%)” value by setting is: (Drug concentration at 1 μg/mL) 11.2%; (Drug concentration at 10 μg/mL) 90.2%.

As to `O=C(Nc1cc([N+](=O)[O-])ccc1Cl)c1cc(Cl)ccc1O` [compound 156], the “Inhibitory rate … (%)” value (Drug concentration at 1 μg/mL) turned out to be 93.8% and the “Inhibitory rate … (%)” value (Drug concentration at 10 μg/mL) worked out at 95.7%.

For `COc1ccc(C(=O)Nc2ccccc2)cc1NC(=O)c1cc(Cl)ccc1O` [compound 157], the “Inhibitory rate … (%)” value is reported as 52.6% (Drug concentration at 1 μg/mL) and 98.8% (Drug concentration at 10 μg/mL).

`COc1ccc(OC)c(NC(=O)c2cc(Cl)ccc2O)c1` [compound 158]: the “Inhibitory rate … (%)” value (Drug concentration at 1 μg/mL) turned out to be 52.4% and the “Inhibitory rate … (%)” value (Drug concentration at 10 μg/mL) amounted to 96.8%.

On to `COc1ccc(C)c(NC(=O)c2cc(Cl)ccc2O)c1` [compound 160], for which the “Inhibitory rate … (%)” value is 69.6% (Drug concentration at 1 μg/mL) and 96.5% (Drug concentration at 10 μg/mL).

Regarding `CCCCOc1ccc(OCCCC)c(NC(=O)c2cc(Cl)ccc2O)c1` [compound 161], the “Inhibitory rate … (%)” value is, setting by setting: (Drug concentration at 1 μg/mL) 94.2%; (Drug concentration at 10 μg/mL) 97.6%.

On to `CC(C)CCOc1ccc(OCCC(C)C)c(NC(=O)c2cc(Cl)ccc2O)c1` [compound 162], for which the “Inhibitory rate … (%)” value is listed as 93.8% (Drug concentration at 1 μg/mL) and 97.9% (Drug concentration at 10 μg/mL).

Consider `CCC(C)(C)c1ccc(Oc2ccccc2)c(NC(=O)c2cc(Cl)ccc2O)c1` [compound 164], for which the “Inhibitory rate … (%)” value runs as follows: (Drug concentration at 1 μg/mL) 97.6%; (Drug concentration at 10 μg/mL) 98.3%.

For the compound `CCCCCCOc1ccc(S(C)(=O)=O)cc1NC(=O)c1cc(Cl)ccc1O` [compound 165], the “Inhibitory rate … (%)” value amounted to 95.9% (Drug concentration at 1 μg/mL) and 99.4% (Drug concentration at 10 μg/mL).

For the compound `Cc1ccc(C(=O)C(C)(C)C)cc1NC(=O)c1cc(Cl)ccc1O` [compound 166], the “Inhibitory rate … (%)” value was 94.1% (Drug concentration at 1 μg/mL) and 96.4% (Drug concentration at 10 μg/mL).

With `COc1ccc(-n2cccc2)c(NC(=O)c2cc(Cl)ccc2O)c1` [compound 167], the “Inhibitory rate … (%)” value runs as follows: (Drug concentration at 1 μg/mL) 76.4%; (Drug concentration at 10 μg/mL) 98.7%.

For the compound `Cc1ccc(S(=O)(=O)c2ccc(Cl)cc2NC(=O)c2cc(Cl)ccc2O)cc1` [compound 168], the “Inhibitory rate … (%)” value reads like this: (Drug concentration at 1 μg/mL) 46.7%; (Drug concentration at 10 μg/mL) 97.8%.

Regarding `Cc1ccc(S(=O)(=O)c2ccc(Cl)c(NC(=O)c3cc(Cl)ccc3O)c2)cc1` [compound 169], the “Inhibitory rate … (%)” value reads like this: (Drug concentration at 1 μg/mL) 31.6%; (Drug concentration at 10 μg/mL) 95.9%.

Source of the values: US20080234233A1, “MEDICAMENT FOR TREATMENT OF NEURODEGENERATIVE DISEASES” (INSTITUTE OF MEDICINAL MOLECULAR DESIGN INC., priority 2002, published 2008).
